In patent publication US20210010031A1, “LENTIVIRAL VECTORS FOR HIGH-TITER TRANSDUCTION OF PRIMARY HUMAN CELLS” (priority 2018, published 2021):

Experiments:
HA-tagged FAM208A = HA-tagged FAM208A (Homo sapiens, UniProt Q9UK61); experiment: Co-immunoprecipitation of HA-FAM208A with FLAG-Vpx in HEK293 cells; assay type: binding; details: versus untreated cells with wild-type SIVMAC251 Vpx (FIG. 17H)
Excerpt: Degradation of SAMHD1 requires direct interaction with Vpx or Vpr. To determine if Vpx similarly associates with proteins of the HUSH complex, HA-tagged FAM208A was co-transfected into HEK293 cells with FLAG-tagged SIVMAC251 Vpx or SIVRCM02CM8081 Vpx. When anti-FLAG antibody was used to immunoprecipitate either of the two Vpx proteins from the soluble cell lysate, HA-FAM208A was detected in the immunoprecipitate (FIG. 17H). The strength of the FAM208A signal in the Vpx pull-out increased when the co-transfected HEK293 cells were incubated with the proteasome inhibitor PR171, or when wild-type SIVMAC251 Vpx was replaced in the transfection by a mutant (Q76A) that is incapable of binding DCAF1 (FIG. 17H and FIGS. 21D and 21E).
Cells were washed in PBS, counted, normalized for cell number, and lysed directly in 1×SDS-PAGE sample buffer. Samples were run on NuPage 4-12% Bis-Tris gels followed by blotting onto nitrocellulose membranes. Primary antibodies used: FAM208A (Atlas, HPA00875), MPHOSPH8 (Proteintech, 16796-1-AP), PPHLN1 (Sigma, HPA038902), SETDB1 (Proteintech 11231-1-AP), DCAF1 (Proteintech, 11612-1-AP), FLAG (Novus, NB600-345), FLAG (Sigma, F1804, used for IP), and HA (Biolegend, 901501).

Jurkat LTR-gfp cells = experiment: HIV-1 LTR-gfp provirus pool in Jurkat T cells; assay type: cell-based, human; details: four weeks after transduction with LTR-GFP (FIG. 22B)
Excerpt: J-Lat A1 was selected to have a silent HIV-1 LTR-driven provirus with the ability to reactivate in response to TNFα^31. The unique provirus within a clone such as J-Lat A1 may be sensitive to position-dependent silencing effects and therefore may not accurately reflect the sensitivity of a population of HIV-1 proviruses to transcriptional activation by Vpx or to silencing by FAM208A. To address the effect of Vpx and FAM208A on a population of proviruses with diverse integration sites, Jurkat T cells were transduced with an HIV-1 LTR driven reporter vector (LTR-gfp) that retains complete LTRs, tat, and rev, but has a frameshift mutation in env, an ngfr reporter gene in place of nef, and gfp in place of gag, pol, vif, and vpr (FIG. 18D). Four weeks after transduction with LTR-GFP, the presence of latent proviruses within the pool of Jurkat cells was confirmed by reactivation with either TNFα or TCR-stimulation (FIG. 22B). […] Compared with control cells, vpx or FAM208A knockdown increased the percentage of GFP cells, whether cells were treated with TNFα or not (FIGS. 18E and 18F). […] Additionally, expression vectors for SIVMND25440 Vpx, SIVRCM02CM8081 Vpx, SIVMND1GB1 Vpr, or […]1 Vpr all increased GFP expression in Jurkat LTR-gfp cells (FIG. 22C). […]
Cells were fixed in BD Cytofix Buffer prior to data acquisition on a BD C6 Accuri. Data was analyzed in FlowJo.

HA-tagged FAM208A, sequence (Q9UK61 whole entry): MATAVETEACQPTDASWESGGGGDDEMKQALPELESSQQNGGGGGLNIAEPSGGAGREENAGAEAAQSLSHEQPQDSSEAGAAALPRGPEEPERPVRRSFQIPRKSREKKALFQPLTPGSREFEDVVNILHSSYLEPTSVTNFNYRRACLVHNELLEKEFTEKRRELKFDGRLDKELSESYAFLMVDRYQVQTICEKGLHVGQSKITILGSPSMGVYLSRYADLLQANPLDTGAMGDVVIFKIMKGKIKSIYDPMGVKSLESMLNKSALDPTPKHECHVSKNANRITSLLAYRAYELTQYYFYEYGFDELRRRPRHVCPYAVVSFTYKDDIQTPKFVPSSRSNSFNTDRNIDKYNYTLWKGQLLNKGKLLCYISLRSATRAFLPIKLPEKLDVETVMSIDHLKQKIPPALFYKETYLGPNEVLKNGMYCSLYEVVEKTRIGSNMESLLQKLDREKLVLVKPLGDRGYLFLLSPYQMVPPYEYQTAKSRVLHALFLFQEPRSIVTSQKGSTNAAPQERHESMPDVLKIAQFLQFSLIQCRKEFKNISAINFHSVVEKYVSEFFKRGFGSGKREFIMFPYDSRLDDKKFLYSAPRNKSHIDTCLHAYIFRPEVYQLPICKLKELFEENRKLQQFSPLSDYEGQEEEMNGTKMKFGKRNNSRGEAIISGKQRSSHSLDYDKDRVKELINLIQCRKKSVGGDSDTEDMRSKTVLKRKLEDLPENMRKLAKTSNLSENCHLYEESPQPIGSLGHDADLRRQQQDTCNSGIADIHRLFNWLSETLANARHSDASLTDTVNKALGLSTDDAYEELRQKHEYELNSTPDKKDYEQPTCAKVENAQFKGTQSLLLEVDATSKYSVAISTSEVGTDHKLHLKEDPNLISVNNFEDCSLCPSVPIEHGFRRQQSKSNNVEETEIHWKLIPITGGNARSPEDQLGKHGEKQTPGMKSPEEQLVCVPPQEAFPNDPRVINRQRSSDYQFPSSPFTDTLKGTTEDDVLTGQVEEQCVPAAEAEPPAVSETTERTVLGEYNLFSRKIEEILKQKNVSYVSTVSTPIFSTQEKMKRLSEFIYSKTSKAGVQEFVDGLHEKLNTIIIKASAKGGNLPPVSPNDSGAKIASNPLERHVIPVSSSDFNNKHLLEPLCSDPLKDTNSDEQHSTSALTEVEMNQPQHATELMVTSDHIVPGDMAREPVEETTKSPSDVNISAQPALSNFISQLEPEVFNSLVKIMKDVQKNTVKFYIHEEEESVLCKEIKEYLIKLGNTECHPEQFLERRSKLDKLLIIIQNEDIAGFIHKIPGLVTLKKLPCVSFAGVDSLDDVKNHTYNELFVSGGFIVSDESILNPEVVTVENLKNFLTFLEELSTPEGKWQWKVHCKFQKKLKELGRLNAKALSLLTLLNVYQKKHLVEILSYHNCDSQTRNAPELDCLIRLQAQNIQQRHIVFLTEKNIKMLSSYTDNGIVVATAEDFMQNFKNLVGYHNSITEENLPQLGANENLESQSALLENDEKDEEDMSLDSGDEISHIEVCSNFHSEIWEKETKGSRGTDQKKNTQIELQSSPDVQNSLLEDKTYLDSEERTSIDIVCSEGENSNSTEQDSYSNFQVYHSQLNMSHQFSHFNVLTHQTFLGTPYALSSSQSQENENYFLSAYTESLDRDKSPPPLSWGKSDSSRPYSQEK

Molecule	strength of the FAM208A signal in the Vpx pull-out (HA-tagged FAM208A)	reactivation of latent proviruses (Jurkat LTR-gfp cells)
CC(C)C[C@H](NC(=O)[C@H](CCc1ccccc1)NC(=O)CN1CCOCC1)C(=O)N[C@@H](Cc1ccccc1)C(=O)N[C@@H](CC(C)C)C(=O)[C@@]1(C)CO1 [PR171]	increased	
TNFα		reactivation
